Reference: US5753610A, “Perfume containing (6E) -2,3-dihydrofarnesol” (Takasago International Corporation, priority 1995, dated 1998)
In brackets after ≈: the same amount, converted by molar mass. Where two headings read alike, the source gives them in different places.

What was measured:
human skin [1] = experiment: Patch test on human skin (inside of upper arms); conditions: for skin irritation: 10% in lanolin, 30 subjects, first 24 hours and subsequent 24 hours
[2] = test system: bacteria listed in Table 1; experiment: Antibacterial test on the bacteria listed in Table 1 (overall statements); assay type: cell-based; conditions: for antimicrobial activity compared with the (6E)-2,3-dihydrofarnesol described before: same test, bacteria listed in Table 1
Description: (§1) The minimum inhibitory concentrations of (6E)-2,3-dihydrofarnesol synthesized in Synthesis Example 1 on bacteria listed in Table 1 were determined in the following manner by the step dilution method in an agar medium.
(§2) 10 g of brain heart infusion medium (manufactured by Nissui Seiyaku K.K.), 10 g of dry bouillon (manufactured by Nissui Seiyaku K.K.), 4 g of yeast extract powder (manufactured by Difco Laboratories) and 14 g of agar were added to 1,000 ml of distilled water and dissolved therein by heating. Then the obtained solution was pipetted in 10 ml portions into test tubes and sterilized under elevated pressure. Then it was heated again and sustained in the state of a solution. Subsequently, each test solution and ethanol or DMSO (dimethyl sulfoxide) free from any antimicrobial compound of the present invention (employed as a control) were added thereto in amounts of 5 to 200 μl. After mixing, the solutions were poured into plastic Petri dishes (inner diameter: 90 mm) and solidified.
(§3) The medium thus solidified in each Petri dish was divided into 9 parts. Then 5 μl portions of suspensions of the test microorganisms except acne bacteria in distilled water (cell or spore count: 10^8 -10^9 /ml) were inoculated thereinto and incubated at 30° C. for 48 hours.
(§4) In the case of the acne bacteria, a GAM medium (manufactured by Nissui Seiyaku K.K.) was pipetted in 6 ml portions into screwed test tubes (10×105 mm) and sterilized. After adding sample solutions, a culture medium of the acne bacteria was inoculated in 5 μl portions and incubated at 37° C. for 48 hours followed by the judgement of the growth.
Further, the (6E)-2,3-dihydrofarnesol synthesized in Synthesis Example 2 and the (3S)-(6E)-2,3-dihydrofarnesol synthesized in Synthesis Example 3 were subjected to the same test by using the bacteria listed in Table 1.

Pseudomonas aeruginosa = experiment: Antibacterial test, step dilution method in agar medium; assay type: cell-based; conditions: 30° C., 48 hours
Description: as §1, §2, §3

Bacillus subtilis = experiment: as above; assay type: cell-based; conditions: 30° C., 48 hours
Description: as §1, §2, §3

human skin [3] = conditions: in vivo
Description: The obtained solution was then applied onto patches (Finnchamber, manufactured by Taisho Pharmaceutical Co., Ltd.). These patches were adhered to the inside of upper arms of 30 subjects. After 24 hours, the patches were peeled from the skin and the skin irritation was examined. Further, the skin irritation was examined after the subsequent 24 hours.

acne bacteria = experiment: Antibacterial test, acne bacteria in GAM medium; assay type: cell-based; conditions: 37° C., 48 hours
Description: as §1, §4

Guinea pig skin = conditions: in vivo
Description: A sensitization test with the use of Guinea pigs was carried out in accordance with the Magnusson method by using (a) the (6E)-2,3-dihydrofarnesol of a purity of 99% or above, (b) the (6E)-2,3-dihydrofarnesol of a purity of 52% and (d) the (3S)-(6E)-2,3-dihydrofarnesol.
Then the same test was performed by using farnesol [(2E,6E)-form: (2E,6Z)-form: (2Z,6E)-form: (2Z,6Z)-form=1:1:1:1] which was an analog of the (6E)-2,3-dihydrofarnesol of the present invention.

skin = conditions: background, restricts use on a mass scale; cited from earlier work
[4] = test system: bacteria listed in Table 1; conditions: JP-A-60-64913; cited from earlier work
coryne bacteria = experiment: Antibacterial test, step dilution method in agar medium; assay type: cell-based; conditions: 30° C., 48 hours, read-out: minimum inhibitory concentration (MIC)
Description: as §1, §2, §3

indigenous skin bacteria = experiment: as above; assay type: cell-based; conditions: 30° C., 48 hours, read-out: minimum inhibitory concentration (MIC)
Description: as §1, §2, §3

Staphylococcus aureus = experiment: as above; assay type: cell-based; conditions: 30° C., 48 hours, read-out: minimum inhibitory concentration (MIC)
Description: as §1, §2, §3

CC(C)=CCC/C(C)=C/CCC(C)CCO (stereo not drawn) [(6E)-2,3-dihydrofarnesol]
sensitization, human skin (human skin [1]; 10% in a lanolin solution): no sensitization
antimicrobial activity compared with farnesol [2]: superior to farnesol in the antimicrobial activity on some bacteria

CC(C)=CCC/C(C)=C/CCC(C)CCO (stereo not drawn) [(a), (6E)-2,3-dihydrofarnesol]
skin irritation (human skin [1]): no skin irritation
antimicrobial activity compared with the (6E)-2,3-dihydrofarnesol described before [2]: almost the same as those described above, though some differences were observed

CC(C)=CCC/C(C)=C/CCC(C)CCO (stereo not drawn) [(b), (6E)-2,3-dihydrofarnesol]
concentration at which an antimicrobial activity was observed ([2]; bacteria of Table 1): ≤ 30 ppm
minimum inhibitory concentration (MIC) (Pseudomonas aeruginosa): 20 ppm
minimum inhibitory concentration (MIC) (Bacillus subtilis): 20 ppm
skin irritation (human skin [3]): no skin irritation
concentration at which an antimicrobial activity was exerted (acne bacteria): ≤ 10 ppm

CC(C)=CCC/C(C)=C/CC[C@H](C)CCO [(d), (3S)-(6E)-2,3-dihydrofarnesol]
skin irritation (human skin [1]): no skin irritation
sensitization (Guinea pig skin): high safety without any sensitization
antimicrobial activity compared with the (6E)-2,3-dihydrofarnesol described before [2]: antimicrobial activity similar to the above-mentioned (6E)-2,3-dihydrofarnesol
antimicrobial activity compared with the (6E)-2,3-dihydrofarnesol described before ([2]; listed as (3S)-(6E)-2,3-dihydrofarnesol synthesized in Synthesis Example 3): almost the same as those described above, though some differences were observed

CC(C=O)Cc1ccc(C(C)C)cc1 (stereo not drawn) [cyclamen aldehyde]
skin sensitization (skin): skin sensitization

CC(C)=CCCC(C)=CCCC(C)=CCO [farnesol]
antimicrobial activity [4]: has an antimicrobial activity
MIC (coryne bacteria): 25 µg/mL (≈ 112 µM)
MIC (indigenous skin bacteria): 50 µg/mL (≈ 225 µM)
MIC (Staphylococcus aureus): 50 µg/mL (≈ 225 µM)
